Results on eight compounds are retold here after patent publication US5073559A, “2-Substituted purinone having phosphodiesterase inhibitory activity” (Smith Kline & French Laboratories, Ltd., priority 1988, dated 1991).

Experiment [1] concerns U46619-induced bronchoconstriction. Kind of experiment: Bronchodilatation in vivo: inhibition of U46619-induced bronchoconstriction in anaesthetised guinea-pigs. More on the design: species or system guinea-pig (Dunkin Hartley). The following applies: Cavia porcellus, iv; i.v. bolus; U46619 infused i.v. at 2.5 nmol/min; range over the listed Examples; read-out: BD50 (dose of compound required to reduce the U46619-induced bronchoconstriction by 50%). The method, then: Male guinea-pigs of the Dunkin Hartley strain (500-600 g) were anaesthetised with Sagatal (pentobarbital sodium) (60 mg/kg). Airway resistance was measured using a modification of the classical Konzett-Rossler technique (J. Pharm. Methods, 13, 309-315, 1985). U46619 (9,11-methanoepoxy-PGH2) was infused i.v. at a rate of 2.5 nmol/min, this produced a steady state of bronchoconstriction (approximately 120% increase from basal airway resistance). The compound under test was administered by i.v. bolus injection, and the subsequent peak inhibition of bronchoconstriction recorded.
The dose of compound required to reduce the U46619-induced bronchoconstriction by 50% is given as the BD50. The compounds of Examples 2, 3, 6, 11, 14 and 15 had BD50 values in the range 0.58-7.24 μmol/kg.

Experiment [2] has as its system ovalbumen antigen challenge bronchoconstrictor response. As to the kind of experiment: Anti-allergic activity: inhibition of ovalbumen-induced bronchoconstrictor response in sensitised guinea-pigs. Format: in vivo, guinea-pig (Duncan Hartley). The note with it: ovalbumen 1 mg/kg i.v. The method, then: Male Duncan Hartley guinea-pigs (250-300 g) were sensitised to ovalbumen by i.p. injection of 2 ml of 50mg.ml^-1 i.p. and 0.2 ml s.c. Three weeks later they were anaesthetised with 60 mg.kg^-1 sodium pentobarbitone. The trachea was cannulated and the animal respired at a rate of 40 breaths per minute and at an initial tracheal inflation pressure of 16 mmHg. Tracheal inflation pressure was measured by a transducer connected to a side arm of the respiration circuit. The carotid artery was cannulated for the measurement of blood pressure and the signal was used to trigger an instantaneous rate meter. A jugular vein was cannulated for the administration of drug and allergen. After surgery the animals were allowed to stabilise and the drug was administered i.v. as a bolus. Following this, ovalbumen 1 mg.kg^-1 was injected i.v. as the antigen challenge either 2, 15 or 30 minutes following drug treatment and the peak bronchoconstrictor response recorded. For the control group ovalbumen only was given. One ovalbumen challenge per guinea-pig was used and n=6 for each time point. The percentage increase in tracheal inflation pressure was calculated. The following results indicating an anti-allergic activity were obtained.

The target of experiment [3] is calmodulin insensitive cyclic GMP phosphodiesterase (Homo sapiens, UniProt O76074). As to the kind of experiment: Inhibition of calmodulin insensitive cyclic GMP phosphodiesterase. The following applies: procedure of European Patent Application No. 293063; range over the listed Examples; read-out: IC50 (concentration of inhibitor required for 50% inhibition of enzyme activity). It counts as biochemical. The method, then:
The activity of the compounds of the present invention as inhibitors of a calmodulin insensitive cyclic GMP phosphodiesterase was measured using the procedure described in European Patent Application No. 293063. […] The compounds of the present invention have the advantage that the are selective in not inhibiting cyclic AMP phosphodiesterase (type III)

`CCCOc1ccc(Cl)cc1-c1nc2nc[nH]c2c(=O)[nH]1` [Example 15, 2-(2-Propoxy-5-chlorophenyl)purin-6-one]: the ED50 in experiment [1] lay within 0.58 to 7.24 µmol/kg. Besides, in experiment [2] (dose 16.6 μmol/kg i.v.), the “% Inhibition of Control Bronchoconstrictor Response 30 min after drug administration” value was found to be 30%.

Take `O=c1[nH]c(-c2ccccc2OCC2CC2)nc2nc[nH]c12` [Example 2, 2-(2-Cyclopropylmethoxyphenyl)purin-6-one]: the ED50 in experiment [1] was 0.58 to 7.24 µmol/kg.

With `CCCOc1ccc(OC)cc1-c1nc2nc[nH]c2c(=O)[nH]1` [Example 14, 2-(2-Propoxy-5-methoxyphenyl)purin-6-one], the ED50 in experiment [1] is 0.58 to 7.24 µmol/kg.

Turning to `O=c1[nH]c2nc(-c3ccccc3OCC3CC3)[nH]c(=O)c2[nH]1` [Example 3, 2-(2-Cyclopropylmethoxyphenyl)purin-6,8-dione], in experiment [1], the ED50 fell in the range of 0.58 to 7.24 µmol/kg. For the same compound, the “% Inhibition of Control Bronchoconstrictor Response 30 min after drug administration” value in experiment [2] (dose 18.4 μmol/kg i.v.) amounted to 24%.

With `CCCOc1ccccc1-c1nc2nc(SC)[nH]c2c(=O)[nH]1` [Example 9, 2-(2-Propoxyphenyl)-8-methylthiopurin-6-one], the IC50 in experiment [3] was 310 to 4800 nM.

For `CCCOc1ccccc1-c1nc2nc(-c3ccccc3)[nH]c2c(=O)[nH]1` [Example 6, 2-(2-Propoxyphenyl)-8-phenylpurin-6-one], in experiment [1], the ED50 lay in the range of 0.58 to 7.24 µmol/kg. Also, the IC50 in experiment [3] fell in the range of 310 to 4800 nM.

As for `CCCOc1ccc([N+](=O)[O-])cc1-c1nc2nc[nH]c2c(=O)[nH]1` [Example 11, 2-(2-Propoxy-5-nitrophenyl)purin-6-one], in experiment [1], the ED50 was in the range of 0.58 to 7.24 µmol/kg.

In the case of `CCCOc1ccccc1-c1nc2nc(S)[nH]c2c(=O)[nH]1` [Example 8, 2-(2-Propoxyphenyl)-8-mercaptopurin-6-one], in experiment [3], the IC50 was in the range of 310 to 4800 nM.
